Experimental data published in patent US9469650B2, “Melampomagnolide B derivatives” (BOARD OF TRUSTEES OF THE UNIVERSITY OF ARKANSAS, priority 2013, dated 2016).

Assays:
MALME-3M [1] = system: MALME-3M
UACC-62 [2] = system: UACC-62
MALME-3M [3] = assay: panel of 60 human tumor cell lines, growth inhibition (Melanoma); conditions: MALME-3M
UACC-62 [4] = assay: as above; conditions: UACC-62
RPMI-8226 = assay: panel of 60 human tumor cell lines, growth inhibition (Leukemia); conditions: RPMI-8226

With C=C1C(=O)O[C@H]2[C@H]1CC/C(COC(=O)N1CCN(C)CC1)=C\CC[C@@]1(C)O[C@@H]21 [JVM 2-44] the CC50 (CCRF-CEM) was greater than 100 µM, the CC50 (K-562) was greater than 100 µM and the CC50 (MOLT-4) was greater than 100 µM. It also gave a CC50 (SR) greater than 100 µM, a CC50 (A549/ATCC) greater than 100 µM and a CC50 (HOP-92) of 44.3 µM. It also gave a CC50 (NCI-H226) greater than 100 µM, a CC50 (NCI-H23) of 82.4 µM and a CC50 (NCI-H460) greater than 100 µM. It also gave a CC50 (NCI-H522) of 8.2 µM, a CC50 (HCC-2998) of 71.9 µM and a CC50 (HCT-15) of 56.6 µM. The CC50 (SW-620) was 58.3 µM, the CC50 (SF-268) was 75.7 µM and the CC50 (SF-295) was greater than 100 µM. The CC50 (SNB-19) was greater than 100 µM, the CC50 (SNB-75) was 61.2 µM and the CC50 (U251) was 88.7 µM. It also gave a CC50 (LOX IMVI) of 55.9 µM, a CC50 (MALME-3M [1]) of 65.4 µM and a CC50 (MDA-MB-435) of 57.5 µM. The CC50 (SK-MEL-2) was 75.3 µM, the CC50 (SK-MEL-5) was 58.7 µM and the CC50 (UACC-257) was 54.1 µM. The CC50 (UACC-62 [2]) was 54.1 µM, the CC50 (IGROV1) was 76 µM and the CC50 (OVCAR-5) was 68.6 µM. The CC50 (OVCAR-8) was 80.6 µM, the CC50 (NCI/ADR-RES) was greater than 100 µM and the CC50 (SK-OV-3) was greater than 100 µM. For the same molecule, the CC50 (786-0) was 72.3 µM, the CC50 (A498) was greater than 100 µM and the CC50 (CAKI-1) was 42.8 µM. For the same molecule, the CC50 (RXF 393) was 48.6 µM, the CC50 (SN12C) was 69.7 µM and the CC50 (TK-10) was 41.6 µM. For the same molecule, the CC50 (UO-31) was 47.6 µM, the CC50 (PC-3) was greater than 100 µM and the CC50 (DU-145) was 48.7 µM. For the same molecule, the CC50 (MCF7) was 60.1 µM, the CC50 (BT-549) was 49 µM and the CC50 (T-47D) was 82.3 µM. For the same molecule, the GI50 (MALME-3M [3]) was 3.33 µM, the TGI (MALME-3M [3]) was 1.20E−5 and the “Mean Optical Densities” value (MALME-3M [3]; Log10 Concentration −4.0) was 0.168. The “Percent Growth” value (MALME-3M [3]; Log10 Concentration −4.0) was −63%, the “Mean Optical Densities” value (MALME-3M [3]; Log10 Concentration −5.0) was 0.461 and the “Percent Growth” value (MALME-3M [3]; Log10 Concentration −5.0) was 5%. For the same molecule, the “Mean Optical Densities” value (MALME-3M [3]; Log10 Concentration −6.0) was 0.705, the “Percent Growth” value (MALME-3M [3]; Log10 Concentration −6.0) was 99% and the “Mean Optical Densities” value (MALME-3M [3]; Log10 Concentration −7.0) was 0.680. The “Percent Growth” value (MALME-3M [3]; Log10 Concentration −7.0) was 89%, the “Mean Optical Densities” value (MALME-3M [3]; Log10 Concentration −8.0) was 0.702 and the “Percent Growth” value (MALME-3M [3]; Log10 Concentration −8.0) was 98%. For the same molecule, the GI50 (UACC-62 [4]) was 6.56 µM, the TGI (UACC-62 [4]) was 2.14E−5 and the “Mean Optical Densities” value (UACC-62 [4]; Log10 Concentration −4.0) was 0.089. For the same molecule, the “Percent Growth” value (UACC-62 [4]; Log10 Concentration −4.0) was −83%, the “Mean Optical Densities” value (UACC-62 [4]; Log10 Concentration −5.0) was 1.284 and the “Percent Growth” value (UACC-62 [4]; Log10 Concentration −5.0) was 41%. For the same molecule, the “Mean Optical Densities” value (UACC-62 [4]; Log10 Concentration −6.0) was 2.153, the “Percent Growth” value (UACC-62 [4]; Log10 Concentration −6.0) was 89% and the “Mean Optical Densities” value (UACC-62 [4]; Log10 Concentration −7.0) was 2.330. For the same molecule, the “Percent Growth” value (UACC-62 [4]; Log10 Concentration −7.0) was 99%, the “Mean Optical Densities” value (UACC-62 [4]; Log10 Concentration −8.0) was 2.369 and the “Percent Growth” value (UACC-62 [4]; Log10 Concentration −8.0) was 101%.

For C=C1C(=O)O[C@H]2[C@H]1CC/C(COC(=O)NCCO)=C\CC[C@@]1(C)O[C@@H]21 [JVM 2-50], the CC50 (CCRF-CEM) was greater than 100 µM, the CC50 (K-562) was greater than 100 µM and the CC50 (MOLT-4) was greater than 100 µM. It also gave a CC50 (SR) greater than 100 µM, a CC50 (A549/ATCC) greater than 100 µM and a CC50 (HOP-92) of 42.3 µM. For the same molecule, the CC50 (NCI-H226) was greater than 100 µM, the CC50 (NCI-H23) was 94.3 µM and the CC50 (NCI-H460) was greater than 100 µM. The CC50 (NCI-H522) was 9.13 µM, the CC50 (HCC-2998) was 77.2 µM and the CC50 (HCT-15) was 57.5 µM. The CC50 (SW-620) was 74 µM, the CC50 (SF-268) was 99.1 µM and the CC50 (SF-295) was greater than 100 µM. It also gave a CC50 (SNB-19) greater than 100 µM, a CC50 (SNB-75) greater than 100 µM and a CC50 (U251) greater than 100 µM. For the same molecule, the CC50 (LOX IMVI) was 57.1 µM, the CC50 (MALME-3M [1]) was 73.3 µM and the CC50 (MDA-MB-435) was 52 µM. It also gave a CC50 (SK-MEL-2) of 94.4 µM, a CC50 (SK-MEL-5) greater than 100 µM and a CC50 (UACC-257) of 63.5 µM. It also gave a CC50 (UACC-62 [2]) of 58.3 µM, a CC50 (IGROV1) greater than 100 µM and a CC50 (OVCAR-5) of 92.4 µM. For the same molecule, the CC50 (OVCAR-8) was greater than 100 µM, the CC50 (NCI/ADR-RES) was greater than 100 µM and the CC50 (SK-OV-3) was greater than 100 µM. The CC50 (786-0) was 66.4 µM, the CC50 (A498) was greater than 100 µM and the CC50 (CAKI-1) was 73.8 µM. For the same molecule, the CC50 (RXF 393) was 62.5 µM, the CC50 (SN12C) was greater than 100 µM and the CC50 (TK-10) was 52.3 µM. The CC50 (UO-31) was 77.1 µM, the CC50 (PC-3) was greater than 100 µM and the CC50 (DU-145) was 52.8 µM. For the same molecule, the CC50 (MCF7) was 75.5 µM, the CC50 (BT-549) was 42.9 µM and the CC50 (T-47D) was 87.4 µM. For the same molecule, the “Percent Growth” value (MALME-3M [3]; Log10 Concentration −4.0) was −67%, the “Percent Growth” value (MALME-3M [3]; Log10 Concentration −5.0) was 58% and the “Percent Growth” value (MALME-3M [3]; Log10 Concentration −6.0) was 110%. The “Percent Growth” value (MALME-3M [3]; Log10 Concentration −7.0) was 111%, the “Percent Growth” value (MALME-3M [3]; Log10 Concentration −8.0) was 107% and the GI50 (MALME-3M [3]; NCI five dose) was 11.5 µM. The TGI (MALME-3M [3]; NCI five dose) was 2.91E−5, the “Percent Growth” value (UACC-62 [4]; Log10 Concentration −4.0) was −84% and the “Percent Growth” value (UACC-62 [4]; Log10 Concentration −5.0) was 62%. The “Percent Growth” value (UACC-62 [4]; Log10 Concentration −6.0) was 97%, the “Percent Growth” value (UACC-62 [4]; Log10 Concentration −7.0) was 93% and the “Percent Growth” value (UACC-62 [4]; Log10 Concentration −8.0) was 93%. The GI50 (UACC-62 [4]; NCI five dose) was 12 µM, the TGI (UACC-62 [4]; NCI five dose) was 2.65E−5 and the “Percent Growth” value (RPMI-8226; Log10 Concentration −4.0) was −49%. The “Percent Growth” value (RPMI-8226; Log10 Concentration −5.0) was 33%, the “Percent Growth” value (RPMI-8226; Log10 Concentration −6.0) was 93% and the “Percent Growth” value (RPMI-8226; Log10 Concentration −7.0) was 97%. For the same molecule, the “Percent Growth” value (RPMI-8226; Log10 Concentration −8.0) was 98%, the GI50 (RPMI-8226; NCI five dose) was 5.14 µM and the TGI (RPMI-8226; NCI five dose) was 2.51E−5.
